Source: patent US10435405B2, “Pyrazolopyridine compounds and uses thereof” (Incyte Corporation, priority 2016, dated 2019)

Biological target: HPK1 (Homo sapiens (Human), UniProt Q92918)
Test: HPK1 Kinase Binding Assay
In short: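 Active HPK1 (added as 4 nM solution) was combined with compound (3-fold, 11-point series) and tracer 222 (18 nM) plus Eu-anti-GST antibody (4 nM) in 50 mM HEPES pH 7.5 with MgCl2 and DTT. After 1 h at 25 °C plates were read. Ki values were derived.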

Sequence of HPK1 (Q92918 1-346): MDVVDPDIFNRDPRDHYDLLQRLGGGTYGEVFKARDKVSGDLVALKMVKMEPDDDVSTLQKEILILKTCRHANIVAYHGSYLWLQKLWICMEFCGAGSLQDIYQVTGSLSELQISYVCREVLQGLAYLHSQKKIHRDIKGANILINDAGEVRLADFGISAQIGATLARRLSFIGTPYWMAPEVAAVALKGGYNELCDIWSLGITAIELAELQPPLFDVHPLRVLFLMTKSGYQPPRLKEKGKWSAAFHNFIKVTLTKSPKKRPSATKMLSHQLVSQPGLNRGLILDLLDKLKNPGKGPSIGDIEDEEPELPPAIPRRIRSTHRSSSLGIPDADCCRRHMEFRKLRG

Row | Structure (SMILES) | Ki [nM]
1 | COc1cccc(F)c1-c1cc2c(/C=C/c3ccc(Br)cc3)n[nH]c2cn1 [Example 116, 3-(4-Bromostyryl)-5-(2-fluoro-6-methoxyphenyl)-1H-pyrazolo[3,4-c]pyridine] | ≤ 100
2 | CNCc1cc(C)c(-c2cc3c(-c4ccc(N5CCC(O)C5)nc4)n[nH]c3cn2)c(F)c1 (stereo not drawn) [Example 113, 1-(5-(5-(2-Fluoro-6-methyl-4-((methylamino)methyl)phenyl)-1H-pyrazolo[3,4-c]pyridin-3-yl)pyridin-2-yl)pyrrolidin-3-ol] | ≤ 100
3 | COc1c(-c2cc3c(-c4cnn(C)c4)n[nH]c3cn2)c(F)cc2c1C(N)CC2 (stereo not drawn) [Example 207, 5-Fluoro-7-methoxy-6-(3-(1-methyl-1H-pyrazol-4-yl)-1H-pyrazolo[3,4-c]pyridin-5-yl)-2,3-dihydro-1H-inden-1-amine] | ≤ 100
4 | CNCc1cc(F)c(-c2cc3c(NC(=O)c4cnn(C)c4)n[nH]c3cn2)c(F)c1 [Example 144, N-(5-(2,6-Difluoro-4-((methylamino)methyl)phenyl)-1H-pyrazolo[3,4-c]pyridin-3-yl)-1-methyl-1H-pyrazole-4-carboxamide] | ≤ 100
5 | CNC1CCc2c1cc(C)c(-c1cc3c(-c4cnn(C)c4)n[nH]c3cn1)c2F (single isomer, unassigned) [Example 238, 4-Fluoro-N,6-dimethyl-5-(3-(1-methyl-1H-pyrazol-4-yl)-1H-pyrazolo[3,4-c]pyridin-5-yl)-2,3-dihydro-1H-inden-1-amine] | ≤ 100
6 | CC(C)N1CC(NCCc2cc(F)c(-c3cc4c(-c5cnn(C)c5)n[nH]c4cn3)c(F)c2)C1 [Example 99, N-(3,5-Difluoro-4-(3-(1-methyl-1H-pyrazol-4-yl)-1H-pyrazolo[3,4-c]pyridin-5-yl)phenethyl)-1-isopropylazetidin-3-amine] | ≤ 100
7 | Cn1cc(C(=O)Nc2cc(F)c(-c3cc4c(-c5cnn(C)c5)n[nH]c4cn3)c(F)c2)cn1 [Example 65, N-(3,5-Difluoro-4-(3-(1-methyl-1H-pyrazol-4-yl)-1H-pyrazolo[3,4-c]pyridin-5-yl)phenyl)-1-methyl-1H-pyrazole-4-carboxamide] | ≤ 100
8 | Cc1cc(CNCc2cocn2)cc(F)c1-c1cc2c(-c3cnn(C)c3)n[nH]c2cn1 [Example 187, N-(3-Fluoro-5-methyl-4-(3-(1-methyl-1H-pyrazol-4-yl)-1H-pyrazolo[3,4-c]pyridin-5-yl)benzyl)-1-(oxazol-4-yl)methanamine] | ≤ 100
9 | CNCc1cc(C)c(-c2cc3c(-c4cnn(C5CCOCC5)c4)n[nH]c3cn2)c(F)c1 [Example 136, 1-(3-Fluoro-5-methyl-4-(3-(1-(tetrahydro-2H-pyran-4-yl)-1H-pyrazol-4-yl)-1H-pyrazolo[3,4-c]pyridin-5-yl)phenyl)-N-methylmethanamine] | ≤ 100
10 | COC1CCCN(Cc2ccc(F)c(-c3cc4c(-c5cnn(C)c5)n[nH]c4cn3)c2F)C1 (stereo not drawn) [Example 130, 5-(2,6-Difluoro-3-((3-methoxypiperidin-1-yl)methyl)phenyl)-3-(1-methyl-1H-pyrazol-4-yl)-1H-pyrazolo[3,4-c]pyridine] | ≤ 100
11 | COc1cc(NC(=O)CN2CC(C)(C)C2)cc(F)c1-c1cc2c(-c3cnn(C)c3)n[nH]c2cn1 [Example 75, 2-(3,3-Dimethylazetidin-1-yl)-N-(3-fluoro-5-methoxy-4-(3-(1-methyl-1H-pyrazol-4-yl)-1H-pyrazolo[3,4-c]pyridin-5-yl)phenyl)acetamide] | ≤ 100
12 | CNCc1cc(F)c(-c2cc3c(-c4cnn(C)c4)n[nH]c3cn2)c(F)c1 [Example 122, 1-(3,5-Difluoro-4-(3-(1-methyl-1H-pyrazol-4-yl)-1H-pyrazolo[3,4-c]pyridin-5-yl)phenyl)-N-methylmethanamine] | ≤ 100
13 | CNC1CCCc2c1ccc(F)c2-c1cc2c(-c3ccc(N4CCN(C)CC4)nc3)n[nH]c2cn1 (stereo not drawn) [Example 240, 6-Fluoro-N-methyl-5-(3-(6-(4-methylpiperazin-1-yl)pyridin-3-yl)-1H-pyrazolo[3,4-c]pyridin-5-yl)-1,2,3,4-tetrahydronaphthalen-1-amine] | ≤ 100
14 | CC(=O)NCc1cc(C)c(-c2cc3c(-c4cnn(C)c4)n[nH]c3cn2)c(F)c1 [Example 191, N-(3-Fluoro-5-methyl-4-(3-(1-methyl-1H-pyrazol-4-yl)-1H-pyrazolo[3,4-c]pyridin-5-yl)benzyl)acetamide] | ≤ 100
15 | COc1cccc(F)c1-c1cc2c(-c3ccc(N4CCN(C)CC4)cc3)n[nH]c2cn1 [Example 43, 5-(2-Fluoro-6-methoxyphenyl)-3-(4-(4-methylpiperazin-1-yl)phenyl)-1H-pyrazolo[3,4-c]pyridine] | ≤ 100
16 | CNCc1cccc(-c2cc3c(-c4cnn(C)c4)n[nH]c3cn2)c1C(F)(F)F [Example 88, N-Methyl-1-(3-(3-(1-methyl-1H-pyrazol-4-yl)-1H-pyrazolo[3,4-c]pyridin-5-yl)-2-(trifluoromethyl)phenyl)methanamine] | ≤ 100
17 | CNCCc1ccc(F)c(-c2cc3c(-c4cnn(C)c4)n[nH]c3cn2)c1F [Example 97, 2-(2,4-Difluoro-3-(3-(1-methyl-1H-pyrazol-4-yl)-1H-pyrazolo[3,4-c]pyridin-5-yl)phenyl)-N-methylethanamine] | ≤ 100

Row | Structure (SMILES) | Ki [nM]
18 | Cc1cc(CNCC(F)(F)F)cc(F)c1-c1cc2c(-c3cnn(C)c3)n[nH]c2cn1 [Example 179, 2,2,2-Trifluoro-N-(3-fluoro-5-methyl-4-(3-(1-methyl-1H-pyrazol-4-yl)-1H-pyrazolo[3,4-c]pyridin-5-yl)benzyl)ethanamine] | ≤ 100
19 | COc1cccc(F)c1-c1cc2c(NC(=O)c3cc(F)cc(F)c3)n[nH]c2cn1 [Example 11, 3,5-Difluoro-N-(5-(2-fluoro-6-methoxyphenyl)-1H-pyrazolo[3,4-c]pyridin-3-yl)benzamide] | ≤ 100
20 | COc1cccc(F)c1-c1cc2c(NC(=O)c3cnn(C)c3)n[nH]c2cn1 [Example 14, N-(5-(2-Fluoro-6-methoxyphenyl)-1H-pyrazolo[3,4-c]pyridin-3-yl)-1-methyl-1H-pyrazole-4-carboxamide] | ≤ 100
21 | Cc1cc(CNC(C)C)cc(F)c1-c1cc2c(-c3cnn(C)c3)n[nH]c2cn1 [Example 178, N-(3-Fluoro-5-methyl-4-(3-(1-methyl-1H-pyrazol-4-yl)-1H-pyrazolo[3,4-c]pyridin-5-yl)benzyl)propan-2-amine] | ≤ 100
22 | Cn1cc(-c2n[nH]c3cnc(-c4c(F)cc(CNc5ccccn5)cc4F)cc23)cn1 [Example 124, N-(3,5-Difluoro-4-(3-(1-methyl-1H-pyrazol-4-yl)-1H-pyrazolo[3,4-c]pyridin-5-yl)benzyl)pyridin-2-amine] | ≤ 100
23 | COc1cccc(F)c1-c1cc2c(NC(=O)c3cccc(N4CCN(C)C(=O)C4)c3)n[nH]c2cn1 [Example 19, N-(5-(2-Fluoro-6-methoxyphenyl)-1H-pyrazolo[3,4-c]pyridin-3-yl)-3-(4-methyl-3-oxopiperazin-1-yl)benzamide] | ≤ 100
24 | CNCc1cc(F)c(-c2cc3c(-c4ccc(N5CCN(C)CC5)nc4)n[nH]c3cn2)c(C(F)(F)F)c1 [Example 119, 1-(3-Fluoro-4-(3-(6-(4-methylpiperazin-1-yl)pyridin-3-yl)-1H-pyrazolo[3,4-c]pyridin-5-yl)-5-(trifluoromethyl)phenyl)-N-methylmethanamine] | ≤ 100
25 | CCN1CCN(c2ccc(NC(=O)c3n[nH]c4cnc(-c5c(F)cccc5OC)cc34)cc2)CC1 [Example 56, N-(4-(4-Ethylpiperazin-1-yl)phenyl)-5-(2-fluoro-6-methoxyphenyl)-1H-pyrazolo[3,4-c]pyridine-3-carboxamide] | ≤ 100
26 | Cn1cc(-c2n[nH]c3cnc(-c4c(F)cc(NC(=O)Cc5cccnc5)cc4F)cc23)cn1 [Example 67, N-(3,5-Difluoro-4-(3-(1-methyl-1H-pyrazol-4-yl)-1H-pyrazolo[3,4-c]pyridin-5-yl)phenyl)-2-(pyridin-3-yl)acetamide] | ≤ 100
27 | Cc1cccc(F)c1-c1cc2c(NC(=O)c3ccc(N4CCN(C)CC4)cc3NCc3ccnn3C)n[nH]c2cn1 [Example 159, N-(5-(2-Fluoro-6-methylphenyl)-1H-pyrazolo[3,4-c]pyridin-3-yl)-2-((1-methyl-1H-pyrazol-5-yl)methylamino)-4-(4-methylpiperazin-1-yl)benzamide] | ≤ 100
28 | CNC1CCc2cc(F)c(-c3cc4c(-c5cnn(C)c5)n[nH]c4cn3)c(F)c2C1 (stereo not drawn) [Example 200, 6,8-Difluoro-N-methyl-7-(3-(1-methyl-1H-pyrazol-4-yl)-1H-pyrazolo[3,4-c]pyridin-5-yl)-1,2,3,4-tetrahydronaphthalen-2-amine] | ≤ 100
29 | COc1cccc(F)c1-c1cc2c(N3CCc4ccc(C#N)cc4C3)n[nH]c2cn1 [Example 38, 2-(5-(2-Fluoro-6-methoxyphenyl)-1H-pyrazolo[3,4-c]pyridin-3-yl)-1,2,3,4-tetrahydroisoquinoline-7-carbonitrile] | ≤ 100
30 | CNCc1cc(F)c(-c2cc3c(-c4cnc(N5CCN(C)CC5)nc4)n[nH]c3cn2)c(F)c1 [Example 217, 1-(3,5-Difluoro-4-(3-(2-(4-methylpiperazin-1-yl)pyrimidin-5-yl)-1H-pyrazolo[3,4-c]pyridin-5-yl)phenyl)-N-methylmethanamine] | ≤ 100
31 | CNCc1cc(F)c(-c2cc3c(-c4ccc(N5CCN(C)CC5)cc4)n[nH]c3cn2)c(C(F)(F)F)c1 [Example 132, 1-(3-Fluoro-4-(3-(4-(4-methylpiperazin-1-yl)phenyl)-1H-pyrazolo[3,4-c]pyridin-5-yl)-5-(trifluoromethyl)phenyl)-N-methylmethanamine] | ≤ 100
32 | CO[C@H]1C[C@H](NCc2ccc(F)c(-c3cc4c(-c5cnn(C)c5)n[nH]c4cn3)c2C)C1 [Example 222, trans-N-(4-Fluoro-2-methyl-3-(3-(1-methyl-1H-pyrazol-4-yl)-1H-pyrazolo[3,4-c]pyridin-5-yl)benzyl)-3-methoxycyclobutanamine] | ≤ 100
33 | COc1cccc(F)c1-c1cc2c(NC(=O)c3ccc(N4CCN(C5CC5)C(=O)C4)cc3)n[nH]c2cn1 [Example 31, 4-(4-Cyclopropyl-3-oxopiperazin-1-yl)-N-(5-(2-fluoro-6-methoxyphenyl)-1H-pyrazolo[3,4-c]pyridin-3-yl)benzamide] | ≤ 100
